The results in this text go back to the METLIN SMRT retention time set (Domingo-Almenara et al. 2019).

The series can be described thus: gradient 5% acetonitrile 3 min, to 50% in 2 min, to 85% in 15 min, held 3 min, 100 µL/min. The following applies: column: Zorbax Extend-C18 2.1 x 50 mm; eluents: water / acetonitrile, 0.1% formic acid. Summed up: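 Data were gathered over 3 months by HPLC coupled to a quadrupole time-of-flight mass spectrometer, operated in positive and negative ionization mode. Mixtures of ~100 pure standards ran on a Zorbax Extend-C18 column (2.1 × 50 mm, 1.8 μm) at 100 μL/min, with water and acetonitrile each containing 0.1% formic acid and dead and dwell volumes of 40 μL and 900 μL. Retention time was read from adduct peaks picked by computer and checked manually.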
Turning to `O=C(N[C@H]1C[C@@H]2C[C@H]1CN2S(=O)(=O)c1ccc2c(c1)CCC2)c1ccccc1`, the RP-LC retention time was determined as 933 s.

With `CCN1CCC2(CC1)OC(=O)C(C)=C2C(=O)NCCc1ccccc1`, the RP-LC retention time was found to be 617 s. In the case of `Cc1nn(-c2ccc(N3CCOCC3)nn2)c(C)c1CCC(=O)NCCC(C)C`, the RP-LC retention time worked out at 672 s. Consider `COc1ccc(N2C(=O)CN(Cc3ccccc3C)[C@H]3CS(=O)(=O)C[C@H]32)cc1Cl`, for which the RP-LC retention time was 879 s. The figure for `CCOC(=O)CNC(=O)N(C)CCc1noc(-c2ccc(Cl)cc2)n1` is 789 s; for `CCCNC(=O)c1ccc2c(c1)CCCN2S(C)(=O)=O` it is 713 s. In the case of `CNC(=O)c1nc(N2CCSCC2)c2cnn(C)c2n1` it was 632 s; in that of `COCCNc1ncc(C(=O)O)c(-c2ccc(OC)cc2)n1`, 658 s. Molecule `COc1ccc(CNc2ccc(-c3nc(-c4ccc(F)cc4)no3)cn2)cc1` registered an RP-LC retention time of 1220 s. On to `CCc1ccc(CNC(=O)C2(c3ccc(NC(C)=O)cc3)CCC2)cc1`, for which the RP-LC retention time amounted to 827 s. With `COc1ccc(Cl)cc1NC(=O)NC1CCN(c2ccc(F)cc2)C1=O` (stereo not drawn), the RP-LC retention time was 899 s. With `O=C(NCc1ccncc1)C1CN(S(=O)(=O)c2ccccc2)CC12CCCCC2` (stereo not drawn), the RP-LC retention time worked out at 594 s.

Turning to `CCOc1ccc(NC(=O)N2CCC(C(=O)NCc3csc(C)n3)CC2)cc1`, the RP-LC retention time is 652 s. The figure for `CCOc1cc(=O)n2c(c1C(=O)OCc1cccc(F)c1)CCCCC2` is 934 s; for `CN1C(=O)NC2NCN(C)C2C1=O` (stereo not drawn) it is 576 s.

`Cc1ccc(-c2nnc(Cc3nc(-c4ccc(OC(C)C)cc4)no3)o2)cc1F` yielded an RP-LC retention time of 1190 s.

`O=C(c1ccco1)N1CCCn2cc(-c3ccc4c(c3)OCO4)nc21` returned an RP-LC retention time of 661 s. In the case of `COc1ccc(-c2ncc3c(n2)CCN(C(=O)Nc2c(F)cccc2F)C3)cc1` it was 658 s; in that of `O=C(Cc1c[nH]c2ccccc12)N1CCC(c2noc(-c3ccccc3)n2)CC1`, 914 s. On to `CCn1cnc2ccc(-c3noc(-c4ccc(OC)c(F)c4)n3)cc21`, for which the RP-LC retention time was 780 s. `Cc1oc2ncnc(N3CCOCC3)c2c1C(=O)N1CCN(c2ccccn2)CC1` came in with an RP-LC retention time of 567 s. `Cc1cc(NC(=O)CN2C(=O)CCc3cc(Br)ccc32)c2ccccc2n1` came in with an RP-LC retention time of 684 s. For `Cn1cnc2ccc(-c3noc(CNC(=O)c4cccs4)n3)cc21`, the RP-LC retention time came to 585 s. The figure for `CCn1cc(C2=CCN(C(=O)NCc3ccc(C)cc3)CC2)c2cccnc21` is 873 s; for `COc1ccc(NC(=O)N2[C@H]3CC[C@@H]2c2cnc(C)nc2C3)cc1F` it is 671 s. In the case of `Cc1cccc(N2CCN(Cc3nc(-c4ccc(N5CCCC5)nc4)no3)CC2)c1C` it was 787 s. In the case of `CC(C)NC(=O)N1CCCC(c2cccc(C(=O)NC(C)c3ccc(F)cc3)c2)C1` (stereo not drawn) it was 907 s. The molecule `Cc1ccccc1NC(=O)N1CCN(Cc2cn(C)c3ccccc23)CC1` displayed an RP-LC retention time of 589 s. Turning to `O=C(CN1CCN(C(=O)Nc2ccccc2)CC1=O)N1CCN(c2ccccc2)CC1`, the RP-LC retention time was determined as 696 s.

For the molecule `COC(=O)c1cnc2nc(C)ccc2c1Nc1ccc(OC)c(Cl)c1`, the RP-LC retention time was found to be 682 s. The figure for `Cc1sc(C)c(S(=O)(=O)NCc2cccs2)c1-c1cc(C(F)(F)F)on1` is 1100 s; for `CC(=O)c1cccc(NS(=O)(=O)c2ccc(F)c(Cl)c2)c1` it is 839 s.

In turn, `O=C(Cn1cccc(-c2nc(-c3ccc(F)cc3)no2)c1=O)NC1CCCC1` registered an RP-LC retention time of 797 s.
